US11697669B2, “Hemi-citrate salts of GABA-A positive allosteric modulator and crystalline form thereof” (priority 2021, dated 2023)
Counter-ions that a name gives are not always drawn. Like-named read-outs stand apart in the source and are kept apart here.

Legend:
Type in all cases: physicochemical
[1] = Dynamic vapor sorption (DVS) at room temperature and 40° C.
Procedure: DVS was measured via a SMS (Surface Measurement System) DVS Intrinsic. Parameters for DVS data collection were as follows:
A second endotherm (having an onset at 121.5° C.) associated with melting of the dehydrated phase (ΔH: 15.20 J/g) was followed by a rapid decomposition as temperature continued to increase (FIG. 3). Because of the low onset of dehydration, the DVS was measured at both room temperature and at 40° C. to predict the stability of the crystalline phase at 40° C. […] A 1.5% weight loss was observed between 95% and 20% RH, and a 2.9% weight loss was observed between 20% and 0% RH, for a total loss of […] across the entire cycle. […] After measuring the hygroscopicity by DVS, an XRPD pattern was collected for comparison to the original material and found to correspond well to the pattern of the room temperature sample post-DVS temperature cycle (FIG. 6).

[2] = Heckel analysis on compaction simulator (yield pressure, strain rate sensitivity, crushing strength); details: for yield pressure, slow speed: punch speed 0.1 mm/s; for yield pressure, fast press speed: punch speed 300 mm/s
Procedure: The aim of the Heckel test is to compress the material under controlled conditions to derive the yield pressure of the bulk material. A known weight of material is compressed within a 10 mm diameter die with flat faced punches moving at a set speed. The force on the punch is accurately measured at frequent intervals whilst the displacement of the punches is used to calculate the volume of the powder. The yield pressure is calculated at slow and fast punch speeds to assess the time-dependent component to deformation of the material.
A known weight of pure drug is compacted to theoretical zero porosity using 10 mm diameter flat faced punches. The Compaction Simulator was used under the following conditions:
During compression the location of the punch tips are accurately determined, and the force measured by load cells producing a record of the primary compression parameters. Temperature and humidity were monitored at intervals during the test.
The data were analyzed by the Compaction Analysis software program to generate values for yield pressure (Py) using the Heckel equation:
[formula] where D=the relative density of the compact; • P=Pressure applied; and • K=Gradient of the line in the linear region; [Reference: R. W. Heckel. Trans. Metall. Soc. AIME 221 (1961)1001-1008].
For some materials, the deformation characteristics change with rate of applied force. This can be estimated by calculating the Strain Rate Sensitivity. The yield pressure at high speed compression is compared to that at slow speed using the following equation:
[formula] [Reference: R. J. Roberts and R. C. Roe, Chem. Eng. Sci. 42(1987) p 903]. Results

[3] = Tablet dissolution: percent release of Compound 1 from acidified tablet formulation
Procedure: FIG. 13 is a graph showing percent release of Compound 1 over time for an acidified tablet formulation containing Compound 1 hemi-citrate salt Form I. Tablets were used initially or maintained at 40° C./75% RH for 2 weeks, 1 month, or 2 months.
FIG. 14 is a graph showing percent release of Compound 1 over time for an acidified tablet formulation containing Compound 1 mono-citrate salt (Form A). Tablets were used initially or stored at 40° C./75% RH for 2 weeks, 1 month, or 2 months.

[4] = Tablet stability: C17 epimer in sealed bottles stored at 40° C./75% RH; details: tablet dosage form, sealed bottle, 1 or 2 months, versus mono-citrate salt
Procedure: FIG. 12 is a graph comparing the amount of the C17 epimer, a degradation product of Compound 1, over time for a tablet formulation containing Compound 1 hemi-citrate salt (Form I; left column in both “1 month” and “2 months”) or Compound 1 mono-citrate salt (Form A; right column in both “1 month” and “2 months”) in sealed bottles stored at 40° C./75% RH).

[5] = Gelation experiments in aqueous media; details: for gelation during tablet dissolution experiments: certain conditions
Procedure: To confirm these findings, controlled experiments were conducted where the free base, mono-citrate, and hemi-citrate salts of Compound 1 were dissolved in aqueous media at concentrations between 0.5 mg/mL and 10 mg/mL. The dissolution experiments were performed in either 0.1 N HCl, water, or pH 7.4 buffer as aqueous media.

[6] = fast speed 300 mm/s, single runs, 21.7° C./38.9% RH

## COC[C@@]1(O)CC[C@@]2(C)[C@@H](CC[C@@H]3[C@@H]2CC[C@]2(C)[C@@H](C(=O)Cn4ccnc4)CC[C@@H]32)C1 [Compound 1 hemi-citrate salt Form I, 3α-Hydroxy-3β-methoxymethyl-21-(1′-imidazolyl)-5α-pregnan-20-one]
[1]
  hygroscopicity: slightly hygroscopic
[1]; 40° C.
  reversibility of water loss: fully reversible
  total loss: 5.4%
  water absorption from 20% to 80% RH: 1.8%
  water lost between 95% and 20% RH: 2.2%
  water lost from 20% to 0% RH: 3.2%
[1]; room temperature
  reversibility of water loss: fully reversible
  total loss across the entire cycle: 4.3%
  water uptake between 20% and 80% RH: 1.2%
  weight loss between 20% and 0% RH: 2.9%
  weight loss between 95% and 20% RH: 1.5%
[2]; fast versus slow speed yield pressure
  Strain rate sensitivity (SRS): 21.4%
[2]
  yield pressure, slow speed: 69 MPa

## COC[C@@]1(O)CC[C@@]2(C)[C@@H](CC[C@@H]3[C@@H]2CC[C@]2(C)[C@@H](C(=O)Cn4ccnc4)CC[C@@H]32)C1 [Compound 1 hemi-citrate salt, 3α-Hydroxy-3β-methoxymethyl-21-(1′-imidazolyl)-5α-pregnan-20-one]
[2]
  classification of compaction properties: soft ductile compaction properties
  yield pressure, fast press speed: 84 MPa
[3]; acidified formulation, initial and open dish at 40° C./75% RH for 2 weeks, 1 month or 2 months
  release of Compound 1 over time: greater than the release of Compound 1 from the same acidified formulation of the Compound 1 mono-citrate salt
[3]; tablet, versus mono-citrate salt
  susceptibility to dissolution slow-down of the tablet: less susceptible than the Compound 1 mono-citrate salt to dissolution slow-down
[4]
  degradation product (C17-epimer) generated: less degradation product
[5]; any of the aqueous media (0.1 N HCl, water, pH 7.4 buffer), concentrations up to 10 mg/mL
  gelation: did not gel
[5]
  gelation during tablet dissolution experiments: not prone to gelation

## COC[C@@]1(O)CC[C@@]2(C)[C@@H](CC[C@@H]3[C@@H]2CC[C@]2(C)[C@@H](C(=O)Cn4ccnc4)CC[C@@H]32)C1.O=C(O)CC(O)(CC(=O)O)C(=O)O [Compound 1 mono-citrate salt Form A]
[2]; [6]
  Compact observations: Laminated
  Ejection Force: 0.740 kN
[2]
  yield pressure, slow speed: 84 MPa
[2]; slow speed 0.1 mm/s, single runs, 21.6° C./37.1% RH
  Compact observations: Ok

## COC[C@@]1(O)CC[C@@]2(C)[C@@H](CC[C@@H]3[C@@H]2CC[C@]2(C)[C@@H](C(=O)Cn4ccnc4)CC[C@@H]32)C1.O=C(O)CC(O)(CC(=O)O)C(=O)O [Compound 1 mono-citrate salt, 3α-Hydroxy-3β-methoxymethyl-21-(1′-imidazolyl)-5α-pregnan-20-one, reference compound]
[2]; from slow speed yield pressure
  classification of compaction properties: moderately brittle/ductile compaction properties
[2]
  yield pressure, fast press speed: 109 MPa
[5]; 0.1 N HCl, 5 mg/mL
  gelation: rapidly gelled
[5]
  gelation during tablet dissolution experiments: significant gelation
[5]; water or pH 7.4 buffer
  gelation: did not gel

## COC[C@@]1(O)CC[C@@]2(C)[C@@H](CC[C@@H]3[C@@H]2CC[C@]2(C)[C@@H](C(=O)Cn4ccnc4)CC[C@@H]32)C1 [Compound 1, 3α-Hydroxy-3β-methoxymethyl-21-(1′-imidazolyl)-5α-pregnan-20-one]
[5]; 0.1 N HCl, concentrations as low as 1 mg/mL
  gelation: rapidly gelled
[5]; water or pH 7.4 buffer
  gelation: did not gel
